From patent US6958323B2 (priority 1997, dated 2005)
Where two headings read alike, the source gives them in different places.

Assays:
[1] = test system: rat striatal synaptosomes; assay type: cell-based
[2] = test system: rat striatal synaptosomes; settings: cited from earlier work
[3] = test system: rat hippocampal synaptosomes; settings: read-out: EC50 for release of hippocampal norepinephrine; cited from earlier work

Compound | Block of nicotine-stimulated [3H]-dopamine release [1] | EC50 ([2]; read-out: EC50 for increase of [3H]-dopamine release) [nM] | EC50 ([2]; read-out: EC50 for release of striatal dopamine) [nM] | EC50 [3] [µM]
CNC1(C)C2CCC(C2)C1(C)C (stereo not shown) [mecamylamine] | fully blocked |  |  | 
CN1CCCC1c1cccnc1 (stereo not shown) [nicotine] |  | 160 | 160 | 6.5
